Where two headings read alike, the source gives them in different places.
Columns and labels:
[1] = molecular target: T1, full-length beta-Catenin (Uniprot ID P35222) (Homo sapiens, UniProt P35222); experiment: Fluorescence polarization IC50 (beta-catenin / 5FAM-TCF4 10-53 competition); format: binding; settings: fluorescence polarization; read-out: beta-Catenin FP IC50
T1 construct: 10 nM full-length beta-Catenin (Uniprot ID P35222)
T1 sequence (P35222 1-781): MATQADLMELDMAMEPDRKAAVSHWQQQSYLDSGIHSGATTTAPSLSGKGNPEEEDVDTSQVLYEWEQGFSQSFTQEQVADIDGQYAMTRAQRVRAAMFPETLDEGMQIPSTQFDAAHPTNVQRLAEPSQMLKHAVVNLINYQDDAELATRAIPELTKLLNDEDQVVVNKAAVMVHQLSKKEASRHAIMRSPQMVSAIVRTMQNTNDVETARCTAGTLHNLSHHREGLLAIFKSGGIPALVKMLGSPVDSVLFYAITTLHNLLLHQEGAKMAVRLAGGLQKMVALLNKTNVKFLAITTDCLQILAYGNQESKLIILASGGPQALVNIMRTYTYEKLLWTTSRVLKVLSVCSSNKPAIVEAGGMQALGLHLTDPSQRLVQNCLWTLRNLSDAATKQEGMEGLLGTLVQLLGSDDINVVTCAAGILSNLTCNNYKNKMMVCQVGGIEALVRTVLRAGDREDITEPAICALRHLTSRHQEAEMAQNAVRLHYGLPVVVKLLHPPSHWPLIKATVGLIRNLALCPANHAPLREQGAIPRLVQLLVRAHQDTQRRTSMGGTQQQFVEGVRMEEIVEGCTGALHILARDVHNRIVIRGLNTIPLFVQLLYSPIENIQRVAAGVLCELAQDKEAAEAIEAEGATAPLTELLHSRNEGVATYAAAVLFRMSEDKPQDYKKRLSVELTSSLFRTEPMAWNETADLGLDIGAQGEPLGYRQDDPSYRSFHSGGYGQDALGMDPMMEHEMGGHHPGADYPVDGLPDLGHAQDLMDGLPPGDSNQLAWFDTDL

[2] = molecular target: T2, beta-catenin/TCF4 engagement (Homo sapiens, UniProt P35222); experiment: Nano-BRET target engagement assay (B-cat-Halo & TCF4-Luc in HEK293 cells); format: cell-based; settings: read-out: NanoBRET Abs IC50
T2 construct: expressed in transfected cells; host or cells: HEK293
T2 sequence (P35222 1-781): T1 sequence (P35222 1-781)

Row | IC50 [1] [nM] | IC50 ([2]; absolute IC50) [nM] | IC50 [2] [nM] | Structure (SMILES)
1 | 69 | 20900 | – | CC(=O)N1CCC[C@]12CC=CCCCC1(CCCC=CCCCOC(=O)N3CC[C@@](C(=O)N[C@@H](Cc4ccccc4Cl)C(=O)N[C@@H](Cc4cccc5ccccc45)C(=O)N[C@@H](CCC(N)=O)C(N)=O)(C3)NC(=O)[C@H](CC(C)C)NC(=O)[C@H](Cc3ccccc3)NC(=O)[C@H](C)NC(=O)[C@H](C)NC(=O)[C@H](CC(=O)O)NC(=O)[C@H](CC(=O)O)NC1=O)NC(=O)[C@H](CC(C)(C)C)NC(=O)[C@H](CC(=O)O)NC2=O (stereo partly drawn) [I-1236, Ac-PL3-Asp-Npg-B5-Asp-Asp-Ala-Ala-Phe-Leu-PyrS2-2C1F-1NapA-Gln-NH2]
2 | 5 | 17900 | – | CC(=O)N1CCC[C@]12CC=CCCCC1(CCCC=CCCCOC(=O)N3CC[C@@](C(=O)N[C@@H](Cc4ccsc4)C(=O)N[C@@H](Cc4csc5ccccc45)C(=O)N[C@@H](CCC(N)=O)C(N)=O)(C3)NC(=O)[C@H](CCCN3CCC(F)(F)CC3)NC(=O)[C@H](Cc3ccccc3)NC(=O)[C@H](C)NC(=O)[C@H](C)NC(=O)[C@H](CC(=O)O)NC(=O)[C@H](CC(=O)O)NC1=O)NC(=O)[C@H](CC(C)(C)C)NC(=O)[C@H](CC(=O)O)NC2=O (stereo partly drawn) [I-1486, Ac-PL3-Asp-Npg-B5-Asp-Asp-Ala-Ala-Phe-F2PipNva-PyrS2-3Thi-BztA-Gln-NH2]
3 | 5 | – | 7700 | CC(=O)N1CCC[C@]12CC=CCCCC1(CCCC=CCCCOC(=O)N3CC[C@@](C(=O)N[C@@H](Cc4ccsc4)C(=O)N[C@@H](Cc4csc5ccccc45)C(=O)N[C@@H](CCC(N)=O)C(N)=O)(C3)NC(=O)[C@H](CC(C)C)NC(=O)[C@H](Cc3ccccc3)NC(=O)[C@H](C)NC(=O)[C@H](C)NC(=O)[C@H](Cn3cc(CCC(=O)O)nn3)NC(=O)[C@H](CC(=O)O)NC1=O)NC(=O)[C@H](CC(C)(C)C)NC(=O)[C@H](CC(=O)O)NC2=O (stereo partly drawn) [I-2082, Ac-PL3-Asp-Npg-B5-Asp-[CH2CH2CO2H]TriAzDap-Ala-Ala-Phe-Leu-PyrS2-3Thi-BztA-Gln-NH2]
4 | 8 | 9800 | – | CCCC[C@@H]1NC(=O)[C@H](Cc2ccccc2)NC(=O)[C@H](C)NC(=O)C(C)(C)NC(=O)[C@H](Cc2cccc(C(=O)O)c2)NC(=O)[C@H](CC(=O)O)NC(=O)C2(CCCC=CCCCOC(=O)N3CC[C@@](C(=O)N[C@@H](Cc4ccsc4)C(=O)N[C@@H](Cc4csc5ccccc45)C(=O)N[C@@H](CCC(=O)N(C)C)C(N)=O)(C3)NC1=O)CCCC=CC[C@]1(CCCN1C(C)=O)C(=O)N[C@@H](CC(=O)O)C(=O)N[C@@H](CC(C)(C)C)C(=O)N2 (stereo partly drawn) [I-2551, Ac-PL3-Asp-Npg-B5-Asp-3COOHF-Aib-Ala-Phe-nLeu-PyrS2-3Thi-BztA-[NMe2]GlnR-NH2]
5 | 8 | – | 9200 | CC(=O)N1CCC[C@]12CC=CCCCC1(CCCC=CCCCOC(=O)N3CC[C@@](C(=O)N[C@@H](Cc4ccsc4)C(=O)N[C@@H](Cc4csc5ccccc45)C(=O)N[C@@H](C)C(N)=O)(C3)NC(=O)[C@H](CC(C)C)NC(=O)[C@H](Cc3ccccc3)NC(=O)[C@H](C)NC(=O)[C@H](Cc3c[nH]cn3)NC(=O)[C@H](Cc3cccc(C(=O)O)c3)NC(=O)[C@H](CC(=O)O)NC1=O)NC(=O)[C@H](CC(C)(C)C)NC(=O)[C@H](CC(=O)O)NC2=O (stereo partly drawn) [I-1916, Ac-PL3-Asp-Npg-B5-Asp-3COOHF-His-Ala-Phe-Leu-PyrS2-3Thi-BztA-Ala-NH2]
6 | 387 | – | > 20000 | CC(=O)N1CCC[C@]12CC=CCC1(CC=CCCCOC(=O)N3CC[C@@](C(=O)N[C@@H](Cc4ccsc4)C(=O)N[C@@H](Cc4csc5ccccc45)C(=O)N[C@@H](CCC(N)=O)C(N)=O)(C3)NC(=O)[C@H](CC(C)C)NC(=O)[C@H](Cc3ccccc3)NC(=O)[C@H](C)NC(=O)[C@H](C)NC(=O)[C@H](CC(=O)O)NC(=O)[C@H](CC(=O)O)NC1=O)NC(=O)[C@H](CC(C)(C)C)NC(=O)[C@H](CC(=O)O)NC2=O (stereo partly drawn) [I-2156, Ac-PL3-Asp-Npg-B3-Asp-Asp-Ala-Ala-Phe-Leu-PyrS2-3Thi-BztA-Gln-NH2]
7 | 11 | 5000 | – | CC(=O)N1CCC[C@]12CC=CCCCC1(CCCC=CCCCOC(=O)N3CC[C@@](C(=O)N[C@@H](Cc4ccsc4)C(=O)N[C@@H](Cc4ccc(Cl)cc4)C(=O)N[C@@H](C)C(N)=O)(C3)NC(=O)[C@H](C(C)C)NC(=O)[C@H](Cc3ccccc3)NC(=O)[C@H](C)NC(=O)[C@H](CCC(N)=O)NC(=O)[C@H](Cc3cccc(C(=O)O)c3)NC(=O)[C@H](CC(=O)O)NC1=O)NC(=O)[C@H](CC(C)(C)C)NC(=O)[C@H](CC(=O)O)NC2=O (stereo partly drawn) [I-2221, Ac-PL3-Asp-Npg-B5-Asp-3COOHF-Gln-Ala-Phe-Val-PyrS2-3Thi-4C1F-Ala-NH2]
8 | 224 | – | > 20000 | CC(=O)N1CCC[C@]12CC=CCCCC1(CCCC=CCCCCOC(=O)N3CCC(C(=O)N[C@@H](Cc4ccccc4C(F)(F)F)C(=O)N[C@@H](Cc4csc5ccccc45)C(=O)N[C@@H](CCC(N)=O)C(N)=O)(CC3)NC(=O)[C@H](CC(C)C)NC(=O)[C@H](Cc3ccccc3)NC(=O)[C@H](C)NC(=O)[C@H](C)NC(=O)[C@H](Cc3cccc(C(=O)O)c3)NC(=O)[C@H](CC(=O)O)NC1=O)NC(=O)[C@H](CC(C)(C)C)NC(=O)[C@H](CC(=O)O)NC2=O (stereo partly drawn) [I-2583, Ac-PL3-Asp-Npg-B5-Asp-3COOHF-Ala-Ala-Phe-Leu-SPip3-2F3MeF-BztA-Gln-NH2]
9 | 30 | > 20000 | – | CC(=O)N1CCC[C@]12CC=CCCCC1(CCCC=CCCCOC(=O)N3CC[C@@](C(=O)N[C@@H](Cc4ccsc4)C(=O)N[C@@H](Cc4csc5ccccc45)C(=O)N[C@@H](CCC(N)=O)C(N)=O)(C3)NC(=O)[C@H](CC(C)C)NC(=O)[C@H](Cc3ccccc3)NC(=O)[C@H](CC(=O)N3CCOCC3)NC(=O)[C@H](C)NC(=O)[C@H](CC(=O)O)NC(=O)[C@H](CC(=O)O)NC1=O)NC(=O)[C@H](CC(C)(C)C)NC(=O)[C@H](CC(=O)O)NC2=O (stereo partly drawn) [I-1507, Ac-PL3-Asp-Npg-B5-Asp-Asp-Ala-MorphAsn-Phe-Leu-PyrS2-3Thi-BztA-Gln-NH2]
10 | 141 | 20200 | – | CC(=O)N1CCC[C@]12CC=CCCCC1(CCCC=CCCCOC(=O)N3CC[C@@](C(=O)N[C@@H](Cc4ccsc4)C(=O)N[C@@H](Cc4csc5ccccc45)C(=O)N[C@@H](CC(C)C)C(N)=O)(C3)NC(=O)[C@H](CC(C)C)NC(=O)[C@H](Cc3ccccc3)NC(=O)[C@H](C)NC(=O)[C@H](C)NC(=O)[C@H](CN(CC(=O)O)CC(F)(F)F)NC(=O)[C@H](CC(=O)O)NC1=O)NC(=O)[C@H](CC(C)(C)C)NC(=O)[C@H](CC(=O)O)NC2=O (stereo partly drawn) [I-1748, Ac-PL3-Asp-Npg-B5-Asp-TfeGA-Ala-Ala-Phe-Leu-PyrS2-3Thi-BztA-Leu-NH2]
11 | 165 | > 20000 | – | CC(=O)N1CCC[C@]12CCCCCCC1(CCCCCCCCCCC[C@@](C)(C(=O)N[C@@H](Cc3ccsc3)C(=O)N[C@@H](Cc3csc4ccccc34)C(=O)N[C@@H](CCC(N)=O)C(N)=O)NC(=O)[C@H](CC(C)C)NC(=O)[C@H](Cc3ccccc3)NC(=O)[C@H](C)NC(=O)[C@H](C)NC(=O)[C@H](CN(CC(=O)O)CC(F)(F)F)NC(=O)[C@H](CC(=O)O)NC1=O)NC(=O)[C@H](CC(C)(C)C)NC(=O)[C@H](CC(=O)O)NC2=O (stereo partly drawn) [I-1698, Ac-PL3-Asp-Npg-B5-Asp-TfeGA-Ala-Ala-Phe-Leu-S8-3Thi-BztA-Gln-NH2]
12 | 69 | > 20000 | – | CC(=O)N1CCC[C@]12CCCCCCC1(CCCCCCCCOC(=O)N3CC[C@@](C(=O)N[C@@H](Cc4ccsc4)C(=O)N[C@@H](Cc4csc5ccccc45)C(=O)N[C@@H](Cc4ccccc4)C(N)=O)(C3)NC(=O)[C@H]([C@@H](C)O)NC(=O)[C@H](Cc3ccccc3)NC(=O)[C@H](C)NC(=O)[C@H](CCCCNC(C)C)NC(=O)[C@H](CN(CC(=O)O)CC(F)(F)F)NC(=O)[C@H](CC(=O)O)NC1=O)NC(=O)[C@H](CC(C)(C)C)NC(=O)[C@H](CC(=O)O)NC2=O (stereo partly drawn) [I-1768, Ac-PL3-Asp-Npg-B5-Asp-TfeGA-iPrLys-Ala-Phe-Thr-PyrS2-3Thi-BztA-Phe-NH2]

Row | Structure (SMILES) | IC50 [1] [nM] | IC50 ([2]; absolute IC50) [nM] | IC50 [2] [nM]
13 | CC(=O)N1CCC[C@]12CC=CCCCC1(CCCC=CCCCOC(=O)N3CC[C@@](C(=O)N[C@@H](Cc4ccsc4)C(=O)N[C@@H](Cc4csc5ccccc45)C(=O)N[C@@H](CCC(N)=O)C(N)=O)(C3)NC(=O)[C@H](CCC(=O)N3CC[C@@H](N(C)C)C3)NC(=O)[C@H](Cc3ccccc3)NC(=O)[C@H](C)NC(=O)[C@H](C)NC(=O)[C@H](CN(CC(=O)O)CC(F)(F)F)NC(=O)[C@H](CC(=O)O)NC1=O)NC(=O)[C@H](CC(C)(C)C)NC(=O)[C@H](CC(=O)O)NC2=O (stereo partly drawn) [I-1939, Ac-PL3-Asp-Npg-B5-Asp-TfeGA-Ala-Ala-Phe-[RDMAPyr]GlnR-PyrS2-3Thi-BztA-Gln-NH2] | 10 | – | 20700

Reference: patent US20240116985A1, “STAPLED PEPTIDES AND METHODS THEREOF” (priority 2020, published 2024)
